Data on 6 compounds can be found in ChEMBL document CHEMBL5465560, “Selectivity Literature for EUbOPEN Chemogenomic Library” (2024).

Assay [1] concerns the target T1, Serine/threonine-protein kinase LATS1 (Homo sapiens) (UniProt O95835).
T1 sequence (whole entry): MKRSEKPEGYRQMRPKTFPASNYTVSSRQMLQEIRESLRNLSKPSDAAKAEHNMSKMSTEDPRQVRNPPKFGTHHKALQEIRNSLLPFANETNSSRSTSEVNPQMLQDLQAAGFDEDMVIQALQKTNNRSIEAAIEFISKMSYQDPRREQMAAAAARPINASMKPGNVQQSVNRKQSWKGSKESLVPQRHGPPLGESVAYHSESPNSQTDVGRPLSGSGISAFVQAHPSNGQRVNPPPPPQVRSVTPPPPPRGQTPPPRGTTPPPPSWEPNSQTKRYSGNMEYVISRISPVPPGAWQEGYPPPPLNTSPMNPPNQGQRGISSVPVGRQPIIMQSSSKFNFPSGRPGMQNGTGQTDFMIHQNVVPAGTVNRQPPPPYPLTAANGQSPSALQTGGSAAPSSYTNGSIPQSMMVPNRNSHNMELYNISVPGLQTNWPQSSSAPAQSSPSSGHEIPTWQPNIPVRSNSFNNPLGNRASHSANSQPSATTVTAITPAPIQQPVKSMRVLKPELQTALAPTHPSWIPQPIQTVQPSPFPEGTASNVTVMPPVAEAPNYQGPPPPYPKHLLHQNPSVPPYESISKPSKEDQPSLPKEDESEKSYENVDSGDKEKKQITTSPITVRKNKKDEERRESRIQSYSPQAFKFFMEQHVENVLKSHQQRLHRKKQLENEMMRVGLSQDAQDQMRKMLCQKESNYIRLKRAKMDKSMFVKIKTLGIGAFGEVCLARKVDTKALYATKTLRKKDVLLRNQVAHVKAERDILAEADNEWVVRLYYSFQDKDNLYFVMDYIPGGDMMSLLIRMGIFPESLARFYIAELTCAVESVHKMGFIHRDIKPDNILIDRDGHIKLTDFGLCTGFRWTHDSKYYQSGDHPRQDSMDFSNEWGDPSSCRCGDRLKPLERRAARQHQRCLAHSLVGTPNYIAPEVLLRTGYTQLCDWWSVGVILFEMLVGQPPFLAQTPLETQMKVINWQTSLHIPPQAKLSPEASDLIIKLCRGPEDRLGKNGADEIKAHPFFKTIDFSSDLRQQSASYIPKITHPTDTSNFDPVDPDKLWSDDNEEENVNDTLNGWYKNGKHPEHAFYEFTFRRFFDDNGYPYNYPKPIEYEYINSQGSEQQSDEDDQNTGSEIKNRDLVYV
Description: Selectivity interaction (KinomeScan (DiscoverX)) EUB0000092b LATS1. The following applies: at 10 µM.

The target of assay [2] is Ephrin type-A receptor 7 (Homo sapiens) (UniProt Q15375). Description: Selectivity interaction (KinomeScan (DiscoverX)) EUB0000655a EPHA7. The following applies: at 10 µM.
In assay [3] the test system is Mast/stem cell growth factor receptor Kit (Homo sapiens), P10721 [V559D]. Description: (§1) Selectivity interaction (KinomeScan (DiscoverX)) EUB0000045b KIT.
Assay [4] relates to Mast/stem cell growth factor receptor Kit (Homo sapiens), P10721 [V559D,T670I]. The assay is described as §1.
For assay [5], the system named is Mast/stem cell growth factor receptor Kit (Homo sapiens), P10721 [D816H]. Described as §1.
Assay [6] relates to Mast/stem cell growth factor receptor Kit (Homo sapiens), P10721 [L576P]. The assay is described as §1.
Assay [7] has as its system Mast/stem cell growth factor receptor Kit (Homo sapiens), P10721 [V559D,V654A]. Described as §1.
Assay [8] deals with Mast/stem cell growth factor receptor Kit (Homo sapiens, UniProt P10721). The description is as §1.
For assay [9], the system named is Mast/stem cell growth factor receptor Kit (Homo sapiens), P10721 [A829P]. Described as §1.
For assay [10], the system named is Mast/stem cell growth factor receptor Kit (Homo sapiens), P10721 [D816V]. The assay is described as §1.
The target in assay [11] is T2, Peripheral plasma membrane protein CASK (Homo sapiens) (UniProt O14936).
T2 sequence (whole entry): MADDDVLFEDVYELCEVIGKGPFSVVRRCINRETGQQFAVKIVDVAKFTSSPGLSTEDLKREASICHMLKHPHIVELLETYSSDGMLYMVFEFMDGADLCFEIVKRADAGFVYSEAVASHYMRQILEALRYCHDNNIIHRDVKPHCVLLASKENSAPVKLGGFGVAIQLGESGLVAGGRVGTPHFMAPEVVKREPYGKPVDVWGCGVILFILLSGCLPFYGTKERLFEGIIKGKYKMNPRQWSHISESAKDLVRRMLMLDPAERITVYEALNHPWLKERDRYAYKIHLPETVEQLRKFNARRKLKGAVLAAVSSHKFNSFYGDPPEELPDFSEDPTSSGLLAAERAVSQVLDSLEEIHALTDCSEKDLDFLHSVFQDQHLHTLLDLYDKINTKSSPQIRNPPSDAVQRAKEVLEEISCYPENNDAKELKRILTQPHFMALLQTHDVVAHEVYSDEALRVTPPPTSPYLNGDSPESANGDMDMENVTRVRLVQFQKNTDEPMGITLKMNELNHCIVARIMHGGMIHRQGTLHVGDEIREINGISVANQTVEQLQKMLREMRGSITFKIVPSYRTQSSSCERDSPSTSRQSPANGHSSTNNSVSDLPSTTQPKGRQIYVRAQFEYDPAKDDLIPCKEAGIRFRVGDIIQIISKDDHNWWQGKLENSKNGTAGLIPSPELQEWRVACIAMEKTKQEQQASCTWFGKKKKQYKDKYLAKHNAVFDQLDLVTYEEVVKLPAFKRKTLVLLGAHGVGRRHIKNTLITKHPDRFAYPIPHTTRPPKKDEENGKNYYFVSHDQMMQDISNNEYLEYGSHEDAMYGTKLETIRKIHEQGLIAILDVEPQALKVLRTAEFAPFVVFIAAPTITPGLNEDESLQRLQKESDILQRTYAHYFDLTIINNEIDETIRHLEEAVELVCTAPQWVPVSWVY
Description: Selectivity interaction (KinomeScan (DiscoverX)) EUB0000607a CASK. The following applies: at 10 µM.

Assay [12] has as its target Interleukin-1 receptor-associated kinase 1 (Homo sapiens) (UniProt P51617). Nature of the assay: Selectivity interaction (KinomeScan (DiscoverX)) EUB0000607a IRAK1. As to conditions: at 10 µM.
Assay [13] shares this target. Description: Selectivity interaction (ActivX KiNativ screen (ex vivo kinase selectivity in human PBMCs)) EUB0001619a IRAK1. It counts as cell-based. The following applies: PBMC, at 1 µM.
The target of assay [14] is Mitogen-activated protein kinase kinase kinase 4 (Homo sapiens) (UniProt Q9Y6R4). Nature of the assay: Selectivity interaction (ActivX KiNativ screen (ex vivo kinase selectivity in human PBMCs)) EUB0001619a MAP3K4. The format is cell-based. The following applies: PBMC, at 1 µM.
The target of assay [15] is Non-receptor tyrosine-protein kinase TYK2 (Homo sapiens, UniProt P29597). Description: Selectivity interaction (KinomeScan (DiscoverX)) EUB0000618a TYK2. The following applies: at 10 µM.
Sequence of Non-receptor tyrosine-protein kinase TYK2 (P29597 whole entry): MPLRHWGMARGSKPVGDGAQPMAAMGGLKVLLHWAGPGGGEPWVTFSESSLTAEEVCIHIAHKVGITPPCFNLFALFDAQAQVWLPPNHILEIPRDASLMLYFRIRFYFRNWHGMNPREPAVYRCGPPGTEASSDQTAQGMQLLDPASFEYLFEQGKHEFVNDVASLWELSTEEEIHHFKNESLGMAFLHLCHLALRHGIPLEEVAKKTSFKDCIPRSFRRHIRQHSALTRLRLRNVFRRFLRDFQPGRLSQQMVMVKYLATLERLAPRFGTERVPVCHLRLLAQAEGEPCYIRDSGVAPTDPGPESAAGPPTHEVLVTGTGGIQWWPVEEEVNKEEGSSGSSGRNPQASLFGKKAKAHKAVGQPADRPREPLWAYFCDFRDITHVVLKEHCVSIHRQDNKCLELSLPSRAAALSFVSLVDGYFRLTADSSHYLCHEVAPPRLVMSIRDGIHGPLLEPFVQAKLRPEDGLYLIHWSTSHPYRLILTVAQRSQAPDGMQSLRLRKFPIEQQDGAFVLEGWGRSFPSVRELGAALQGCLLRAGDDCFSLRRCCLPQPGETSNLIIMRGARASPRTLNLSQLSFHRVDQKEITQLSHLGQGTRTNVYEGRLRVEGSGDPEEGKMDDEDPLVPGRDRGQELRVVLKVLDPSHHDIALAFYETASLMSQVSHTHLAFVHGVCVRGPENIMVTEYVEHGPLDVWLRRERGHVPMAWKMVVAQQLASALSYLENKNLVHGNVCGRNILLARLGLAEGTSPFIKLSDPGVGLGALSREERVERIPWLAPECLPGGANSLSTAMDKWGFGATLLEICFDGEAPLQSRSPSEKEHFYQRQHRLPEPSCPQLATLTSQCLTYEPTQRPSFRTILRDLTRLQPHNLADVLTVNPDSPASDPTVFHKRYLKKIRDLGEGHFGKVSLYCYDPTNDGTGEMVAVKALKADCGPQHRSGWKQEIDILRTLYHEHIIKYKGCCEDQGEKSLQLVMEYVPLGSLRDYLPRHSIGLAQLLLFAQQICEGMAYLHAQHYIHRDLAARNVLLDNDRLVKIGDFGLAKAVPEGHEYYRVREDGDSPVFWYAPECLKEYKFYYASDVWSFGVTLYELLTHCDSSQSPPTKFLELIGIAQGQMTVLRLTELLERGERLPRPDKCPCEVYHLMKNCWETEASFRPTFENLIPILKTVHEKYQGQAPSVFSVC

Sequence of Mast/stem cell growth factor receptor Kit (Homo sapiens), P10721 [D816H] (P10721 whole entry D816H): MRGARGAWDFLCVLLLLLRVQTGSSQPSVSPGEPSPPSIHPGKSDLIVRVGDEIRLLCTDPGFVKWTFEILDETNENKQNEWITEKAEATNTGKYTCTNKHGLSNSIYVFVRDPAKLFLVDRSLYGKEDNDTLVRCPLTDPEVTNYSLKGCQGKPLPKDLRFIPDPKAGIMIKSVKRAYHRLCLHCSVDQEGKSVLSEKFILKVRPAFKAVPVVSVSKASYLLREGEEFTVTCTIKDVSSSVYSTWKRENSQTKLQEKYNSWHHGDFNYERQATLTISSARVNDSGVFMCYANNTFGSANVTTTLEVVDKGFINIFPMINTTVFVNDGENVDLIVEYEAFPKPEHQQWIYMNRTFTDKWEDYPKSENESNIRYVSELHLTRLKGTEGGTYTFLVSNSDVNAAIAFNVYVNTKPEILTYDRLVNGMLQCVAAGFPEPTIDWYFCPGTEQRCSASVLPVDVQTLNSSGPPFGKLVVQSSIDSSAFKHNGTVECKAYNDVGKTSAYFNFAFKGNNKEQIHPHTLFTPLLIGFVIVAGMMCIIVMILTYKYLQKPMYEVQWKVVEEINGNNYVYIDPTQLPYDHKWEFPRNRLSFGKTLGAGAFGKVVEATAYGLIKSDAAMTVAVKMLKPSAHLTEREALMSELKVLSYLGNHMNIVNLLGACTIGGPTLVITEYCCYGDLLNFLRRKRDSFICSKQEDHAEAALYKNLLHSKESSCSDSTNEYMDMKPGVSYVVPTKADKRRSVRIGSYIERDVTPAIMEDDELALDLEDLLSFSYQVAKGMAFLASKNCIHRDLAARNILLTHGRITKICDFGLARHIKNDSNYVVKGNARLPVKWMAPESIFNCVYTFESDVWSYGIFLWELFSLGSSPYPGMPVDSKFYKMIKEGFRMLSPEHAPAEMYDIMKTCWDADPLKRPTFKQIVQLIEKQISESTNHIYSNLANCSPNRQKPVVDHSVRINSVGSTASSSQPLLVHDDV
Sequence of Mast/stem cell growth factor receptor Kit (Homo sapiens), P10721 [L576P] (P10721 whole entry L576P): as the sequence (P10721 whole entry D816H) above, with L576P, H816D counted along it
Sequence of Mast/stem cell growth factor receptor Kit (Homo sapiens), P10721 [A829P] (P10721 whole entry A829P): as the sequence (P10721 whole entry D816H) above, with H816D, A829P counted along it
Sequence of Mast/stem cell growth factor receptor Kit (P10721 whole entry): as the sequence (P10721 whole entry D816H) above, with H816D counted along it
Sequence of Mast/stem cell growth factor receptor Kit (Homo sapiens), P10721 [V559D,V654A] (P10721 whole entry V559D/V654A): as the sequence (P10721 whole entry D816H) above, with V559D, V654A, H816D counted along it
Sequence of Interleukin-1 receptor-associated kinase 1 (Homo sapiens) (P51617 whole entry, looked up): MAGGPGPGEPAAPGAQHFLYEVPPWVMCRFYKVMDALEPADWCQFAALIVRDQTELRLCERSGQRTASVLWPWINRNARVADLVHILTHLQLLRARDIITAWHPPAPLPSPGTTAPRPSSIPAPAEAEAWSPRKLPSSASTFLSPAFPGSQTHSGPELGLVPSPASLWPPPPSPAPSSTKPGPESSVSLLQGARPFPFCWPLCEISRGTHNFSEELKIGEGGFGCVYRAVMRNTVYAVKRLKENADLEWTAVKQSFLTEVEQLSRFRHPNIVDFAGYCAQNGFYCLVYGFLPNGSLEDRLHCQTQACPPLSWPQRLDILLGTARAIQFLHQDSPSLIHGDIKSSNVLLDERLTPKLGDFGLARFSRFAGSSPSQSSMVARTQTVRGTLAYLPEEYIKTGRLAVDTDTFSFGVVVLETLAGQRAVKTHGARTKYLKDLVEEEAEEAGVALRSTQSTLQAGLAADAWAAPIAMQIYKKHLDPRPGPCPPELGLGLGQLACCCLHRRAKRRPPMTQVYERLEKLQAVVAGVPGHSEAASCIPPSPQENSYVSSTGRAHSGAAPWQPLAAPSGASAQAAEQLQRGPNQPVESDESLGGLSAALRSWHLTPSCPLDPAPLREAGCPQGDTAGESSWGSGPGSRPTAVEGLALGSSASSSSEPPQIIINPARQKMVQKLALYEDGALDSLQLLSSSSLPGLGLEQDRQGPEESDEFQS
Sequence of Mast/stem cell growth factor receptor Kit (Homo sapiens), P10721 [D816V] (P10721 whole entry D816V): as the sequence (P10721 whole entry D816H) above, with H816V counted along it
Sequence of Mast/stem cell growth factor receptor Kit (Homo sapiens), P10721 [V559D,T670I] (P10721 whole entry V559D/T670I): as the sequence (P10721 whole entry D816H) above, with V559D, T670I, H816D counted along it
Sequence of Mast/stem cell growth factor receptor Kit (Homo sapiens), P10721 [V559D] (P10721 whole entry V559D): as the sequence (P10721 whole entry D816H) above, with V559D, H816D counted along it
Sequence of Ephrin type-A receptor 7 (Homo sapiens) (Q15375 28-998 limits assumed): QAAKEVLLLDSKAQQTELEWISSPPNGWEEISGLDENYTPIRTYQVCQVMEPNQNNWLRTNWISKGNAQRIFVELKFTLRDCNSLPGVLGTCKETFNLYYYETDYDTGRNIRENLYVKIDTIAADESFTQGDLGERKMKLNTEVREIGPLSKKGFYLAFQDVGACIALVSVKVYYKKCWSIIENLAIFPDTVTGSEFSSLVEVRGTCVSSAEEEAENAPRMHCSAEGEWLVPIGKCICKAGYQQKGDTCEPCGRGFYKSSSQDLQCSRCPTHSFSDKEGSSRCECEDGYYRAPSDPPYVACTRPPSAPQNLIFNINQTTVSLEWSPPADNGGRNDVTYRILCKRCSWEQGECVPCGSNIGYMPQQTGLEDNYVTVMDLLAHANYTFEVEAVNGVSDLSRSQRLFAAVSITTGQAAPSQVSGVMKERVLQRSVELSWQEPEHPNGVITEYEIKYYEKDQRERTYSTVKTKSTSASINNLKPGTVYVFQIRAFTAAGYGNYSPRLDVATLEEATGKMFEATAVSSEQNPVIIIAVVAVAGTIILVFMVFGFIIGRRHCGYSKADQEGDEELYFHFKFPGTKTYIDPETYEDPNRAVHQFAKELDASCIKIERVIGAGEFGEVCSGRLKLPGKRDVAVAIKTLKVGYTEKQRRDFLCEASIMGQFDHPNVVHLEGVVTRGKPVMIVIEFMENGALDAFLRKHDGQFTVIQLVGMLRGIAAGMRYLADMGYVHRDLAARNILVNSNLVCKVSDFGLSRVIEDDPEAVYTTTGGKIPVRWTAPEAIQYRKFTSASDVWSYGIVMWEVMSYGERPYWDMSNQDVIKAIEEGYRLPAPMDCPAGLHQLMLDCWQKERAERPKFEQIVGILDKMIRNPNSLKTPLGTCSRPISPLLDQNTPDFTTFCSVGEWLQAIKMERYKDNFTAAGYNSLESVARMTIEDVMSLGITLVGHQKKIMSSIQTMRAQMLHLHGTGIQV

`CCC(=O)N1CCN(c2ccc(-n3c(=O)ccc4cnc5ccc(-c6cnc7ccccc7c6)cc5c43)cc2C(F)(F)F)CC1` yielded a % of control in [1] of 100%.

In turn, `CN(C)CCOc1ccc(-c2nc(-c3ccncc3)c(-c3ccc4c(c3)CC/C4=N\O)[nH]2)cc1` came in with a % of control in [2] of 100%.

For the compound `C=CC(=O)Nc1cc(-n2c(=O)ccc3cnc4ccc(-c5ccc(NS(C)(=O)=O)cc5)cc4c32)ccc1C`, the % of control in assay [3] (at 1 µM) worked out at 87%; in [3] (at 10 µM), 88%; in [4] (at 1 µM), 100%; in assay [4] (at 10 µM), 91%; in [5] (at 1 µM), 99%; in assay [5] (at 10 µM) it was 100%. Also, the % of control in [6] (at 1 µM) turned out to be 100%; in assay [6] (at 10 µM), 83%; in assay [7] (at 1 µM), 100%; in assay [7] (at 10 µM), 100%; in [8] (at 1 µM), 89%; in assay [8] (at 10 µM) it was 89%. Moreover, the % of control in assay [9] (at 1 µM) was 74%; in [9] (at 10 µM) it was 81%; in assay [10] (at 1 µM) it was 69%; in [10] (at 10 µM), 73%.

As for `CNC(=O)Nc1ccc(-c2nc(N3CC4CCC(C3)O4)c3cnn(C4CCC5(CC4)OCCO5)c3n2)cc1`, the % of control in [11] was found to be 64%; in [12] it was 100%.

Consider `N#Cc1cccc(-c2c[nH]c3ncnc(N4CCOCC4)c23)c1`, for which the % of inhibition in [13] turned out to be 2%; in assay [14], 30%.

As to `O[C@H]1CC[C@H](Nc2ncc3nc(Nc4c(F)cc(F)cc4F)n([C@H]4CCOC4)c3n2)CC1`, the % of control in assay [15] amounted to 61%.
